Reference: patent US5550143A, “Heterocyclic compounds” (Adir et Compagnie, priority 1992, dated 1996)
Like-named read-outs stand apart in the source and are kept apart here.

Assays:
TNF [1] = experiment: Inhibition of the production of TNF in mice treated with LPS (amount of TNF in the serum); format: in vivo; settings: Mus musculus, 1 h; for inhibition in vivo at 50 mg/kg: oral, 30 min before LPS 2.5 μg i.p., compared with control group which received only LPS, read-out: % inhibition of the production of TNF after oral admin.
Protocol: The test is carried out on mice. Thirty minutes after the intraperitoneal or oral administration of the molecule to be tested, the mice are treated intraperitoneally with 2.5 μg of LPS from Escherichia coli. The amount of TNF in the serum is measured after 1 hour by a biological method.

LPS shock = experiment: Protective effect in respect of LPS shock (% survival of mice after administration of LPS); format: in vivo; settings: 30 min before LPS 1 μg
Protocol: The test is carried out on mice. The compound to be tested is administered intraperitoneally or orally. In the first protocol (i.p.), the compound is administered 30 minutes before the injection of 1 μg of LPS into mice. The mortality is determined 72 hours later.

TNF [2] = experiment: Peripheral effect: amount of TNF in serum and brain of rats after intracerebroventricular LPS; format: in vivo; settings: Example 1 i.p. 8 mg/kg, FIG. 1
Excerpt: In comparison with chlorpromazine, the compounds of the invention have only a peripheral effect.

[3] = test system: spontaneous motor activity; experiment: Locomotive activity in mice (spontaneous motor activity); format: in vivo; settings: for Number of movements (as a % compared with a control group): 30 min before test, 15 min, ns p > 0.05, ** p < 0.01
Protocol: This test consists in determining the spontaneous motor activity of mice placed in an enclosure that constitutes a new environment and is equipped with a system of infra-red rays, the interruption of which when the animal passes through serves as a measurement criterion ("Activity monitor" Digiscan-Omnitech Electronics, Sufraco France).
The molecules are administered intraperitoneally 30 minutes before the test at doses of 1, 2, 2.5, 4, 5 and 10 mg/kg. The locomotive activity (number of movements) is measured for 15 minutes.

corticosteronemia = experiment: Measurement of corticosteronemia after administration of IL-1; format: in vivo, mice; settings: for Reduction in hypercorticosteronemia compared with control / Hypercorticosteronemia after admin. IL-1: 30 min before 1 μg IL-1 i.p.; for Hypercorticosteronemia after admin. IL-1: measured 2 hours later
Protocol: Thirty minutes after the intraperitoneal administration of the molecule to be tested, the mice are treated with 1 μg of IL-1 injected intraperitoneally. Corticosteronemia is determined 2 hours later by a suitable technique. Under the same conditions, the compound and then a saline solution are administered intraperitoneally to a control group.

[4] = Hypotensive effect in rats; format: in vivo; settings: 20 mg/kg intraperitoneally
Procine pancreatic PLA2 = molecular target: T1, Procine pancreatic PLA2 (Sus scrofa, UniProt P00592); experiment: Inhibition of phospholipase PLA2 activity (E. coli membranes labelled with tritiated oleic acid); format: biochemical, pigs; settings: read-out: % Inhibition at 1 mM
T1 construct: from tissue; host or cells: porcine pancreas
T1 sequence (P00592 23-146): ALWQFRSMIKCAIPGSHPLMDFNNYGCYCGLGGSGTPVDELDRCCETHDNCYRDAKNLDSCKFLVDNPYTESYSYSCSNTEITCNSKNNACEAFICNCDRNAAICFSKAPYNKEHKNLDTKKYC
Protocol: PLA2 hydrolyses cell membrane phospholipids by freeing arachidonic acid (AA). Inhibition of that enzyme brings about a reduction in the amount of non-esterified free AA from which metabolites, such as leucotrienes and pro-inflammatory prostaglandins, are produced. The PLA2 activity is measured by using as substrate E. coli membranes labelled with tritiated oleic acid. Procine pancreatic PLA2 is incubated with the preparation for 30 minutes at 37° C. After centrifugation, the radioactivity of the supernatant is counted. The inhibitory activity of the compound (1 mM) is expressed in relation to the control.

[5] = ip, read-out: % inhibition of the production of TNF after i.p. admin.
[6] = 1 mM, 30 minutes at 37° C., relative to control

Row | Structure (SMILES) | hypotension [4] | inhibition in vivo at 50 mg/kg (TNF [1]) [%] | inhibition in vivo at 5 mg/kg (TNF [1]; [5]) [%] | Reduction in hypercorticosteronemia compared with control (corticosteronemia; 5 mg/kg i.p.) [%] | Hypercorticosteronemia after admin. IL-1 (corticosteronemia; 5 mg/kg i.p.) [ng/ml serum] | other results
1 | CN(C)CCCN1c2ccccc2Sc2ccc(Cl)cc21 [Chlorpromazine, reference compound] | severe hypotension from the 15th minute onwards | – | – | – | – | inhibition in vivo at 4 mg/kg (TNF [1]; [5]): 100%; % survival 72 h after i.p. administration (LPS shock; 1 mg/kg): 36%; % survival 72 h after i.p. administration (LPS shock; 4 mg/kg): 77%; amount of TNF in the brain (rats, intracerebroventricular LPS) (TNF [2]; brain): the amount in the brain, as is observed in rats treated with chlorpromazine; amount of TNF in the serum (rats, intracerebroventricular LPS) (TNF [2]; 8 mg/kg): reduces the amount of TNF in the serum, as does chlorpromazine; Number of movements (as a % compared with a control group) ([3]; IP 1 mg/kg): -20%; Number of movements (as a % compared with a control group) ([3]; IP 2 mg/kg): -58%; Number of movements (as a % compared with a control group) ([3]; IP 4 mg/kg): -64%; sedative action (in words) ([3]; i.p., chlorpromazine at 2 mg/kg and above): very sedative at 2 mg/kg and above; Reduction in hypercorticosteronemia compared with control (corticosteronemia; 4 mg/kg i.p.): ~86%; Reduction in hypercorticosteronemia compared with control (corticosteronemia; 4 mg/kg i.p., listed as Chloropromazine): 85.7%; Hypercorticosteronemia after admin. IL-1 (corticosteronemia; 4 mg/kg i.p.): 63 ng/ml serum; passage through the blood/brain barrier (corticosteronemia; demonstrated by determination of corticosteronemia after IL-1): crosses the blood/brain barrier; inhibition at 1000 µM (Procine pancreatic PLA2): 76%
2 | C[N+](C)(C)CCCN1c2ccccc2Sc2ccc(Cl)cc21.[Br-] [Example 1, N-[3-(2-chlorophenothiazin-10-yl)propyl]trimethylammonium bromide] | No hypotension is observed | 68 | 75 | 11.8 | 389 | % survival 72 h after i.p. administration (LPS shock; 5 mg/kg): 80%; amount of TNF in the serum (rats, intracerebroventricular LPS) (TNF [2]): reduces the amount of TNF in the serum; Number of movements (as a % compared with a control group) ([3]; IP 5 mg/kg): -20%; Number of movements (as a % compared with a control group) ([3]; IP 10 mg/kg): -9%; inhibition at 1000 µM (Procine pancreatic PLA2; [6]): 72%
3 | C[N+](C)(C)CCCN1c2ccccc2[S+]([O-])c2ccc(Cl)cc21.[Br-] (stereo not drawn) [Example 2, N-[3-(2-chloro-5-oxo-phenothiazin-10-yl)propyl]trimethylammonium bromide] | No hypotension is observed | 60 | 50 | 5.4 | 417 | –
4 | C[N+](C)(C)CCCN1c2ccccc2S(=O)(=O)c2ccc(Cl)cc21 [Example 3, N-[3-(2-chloro-5-dioxo-phenothiazin-10-yl)propyl]trimethylammonium bromide] | – | – | 69 | – | – | –
5 | CC(C)[N+](C)(C)CCCN1c2ccccc2Sc2ccc(Cl)cc21 [Example 6, N-[3-(2-chlorophenothiazin-10-yl)propyl] dimethylisopropylammonium bromide] | – | 38 | – | – | – | –
6 | CCCC[N+](C)(C)CCCN1c2ccccc2Sc2ccc(Cl)cc21.[Br-] [Example 7, N-[3-(2-chlorophenothiazin-10-yl)propyl] butyldimethylammonium bromide] | No hypotension is observed | 72 | 95 | 11.8 | 389 | % survival 72 h after i.p. administration (LPS shock; 5 mg/kg): 40%; Number of movements (as a % compared with a control group) ([3]; IP 5 mg/kg): -43%; Number of movements (as a % compared with a control group) ([3]; IP 10 mg/kg): -63%; Number of movements (as a % compared with a control group) ([3]; IP 2,5 mg/kg): -27%; inhibition at 1000 µM (Procine pancreatic PLA2; [6]): 97%
7 | CCCC[N+](C)(C)CCCN1c2ccccc2[S+]([O-])c2ccc(Cl)cc21.[Br-] (stereo not drawn) [Example 8, N-[3-(2-chloro-5-oxo-phenothiazin-10-yl)propyl] butyldimethylammonium bromide] | No hypotension is observed | 73 | 71 | 19.3 | 356 | –
8 | CCCC[N+](C)(C)CCCN1c2ccccc2S(=O)(=O)c2ccc(Cl)cc21 [Example 9, N-[3-(2-chloro-5-dioxo-phenothiazin-10-yl)propyl] butyldimethylammonium bromide] | – | – | 75 | – | – | –
9 | C[N+](C)(CCCN1c2ccccc2Sc2ccc(Cl)cc21)Cc1ccccc1.[Br-] [Example 10, N-[3-(2-chlorophenothiazin-10-yl)propyl] benzyldimethylammonium bromide] | – | – | 27 | 0.2 | 440 | % survival 72 h after i.p. administration (LPS shock; 5 mg/kg): 60%; inhibition at 1000 µM (Procine pancreatic PLA2; [6]): 98%
10 | O=C(O)CCCN1c2ccccc2Sc2ccc(Cl)cc21 [Example 15, 4-(2-chlorophenothiazin-10-yl)butanoic acid] | – | 55 | – | – | – | –
11 | CC(C)=CCC/C(C)=C/CN1c2ccccc2Sc2ccc(Cl)cc21 [Example 26, 2-chloro-10-[(2E)-1-(3,7-dimethylocta-2,6-dienyl)]phenothiazine] | – | 55 | – | – | – | –
12 | CC(C)(C)C1CCC2(CC1)CCN(CCCN1c3ccccc3Sc3ccc(Cl)cc31)C2 (stereo not drawn) [Example 27, 2-[3-(2-chlorophenothiazin-10-yl)propyl]-8-tert-butyl-2-azoniaspiro[4.5]decane chloride] | – | 26 | – | – | – | –
13 | CCN(CC)CCCC(C)Nc1c2ccc(Cl)cc2nc2ccc(OC)cc12 (stereo not drawn) [Mepacrine, reference compound] | – | – | – | – | – | inhibition at 1000 µM (Procine pancreatic PLA2): 67%
